From patent US20240300968A1, “6-SUBSTITUTED NAPHTHALENE-1,3-DISULFONIC ACID DERIVATIVES AS MODULATORS OF THE EXTRACELLULAR NICOTINAMIDE PHOSPHORIBOSYL TRANSFERASE (ENAMPT) FOR THE TREATMENT OF E.G. DIABETES” (The University of Manchester, priority 2021, published 2024)
Where two headings read alike, the source gives them in different places.

Experiments:
NAMPT [1] = target: T1, NAMPT (Homo sapiens (Human), UniProt P43490); assay: Tm shift assay (thermal melting, SYPRO Orange); type: binding; settings: read-out: NAMPT Tm shift
T1 sequence (P43490 whole entry, species assumed): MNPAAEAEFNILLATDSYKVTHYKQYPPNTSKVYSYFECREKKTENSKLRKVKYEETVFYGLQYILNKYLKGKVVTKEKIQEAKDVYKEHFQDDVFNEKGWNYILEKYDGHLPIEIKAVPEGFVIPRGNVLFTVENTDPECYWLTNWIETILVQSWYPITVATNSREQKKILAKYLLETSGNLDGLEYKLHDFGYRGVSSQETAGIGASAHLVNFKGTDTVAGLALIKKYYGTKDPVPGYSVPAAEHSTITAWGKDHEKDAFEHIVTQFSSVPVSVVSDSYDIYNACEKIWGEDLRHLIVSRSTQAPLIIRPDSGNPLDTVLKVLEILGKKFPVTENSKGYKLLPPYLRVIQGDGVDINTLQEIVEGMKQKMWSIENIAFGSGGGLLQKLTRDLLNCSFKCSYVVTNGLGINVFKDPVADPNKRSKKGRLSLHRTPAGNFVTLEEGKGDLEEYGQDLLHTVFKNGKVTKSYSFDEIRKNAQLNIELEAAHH

THP-1 cells = assay: THP-1 WST-1 assay; type: cell-based; settings: Homo sapiens, 1 μM test compound, 48 hrs, average of three replicates
Experimental: THP-1 cells were plated at […] (400,000 cells per mL) in a final volume of 150 μL media (RPMI-1640 containing 10% v/v FBS) containing 1 μM test compound. Samples were incubated for 48 hrs at which point 15 μL WST-1 solution (Sigma-Aldrich) was added. Light was excluded and the samples incubated for a further 2 hrs. Absorbance of wells were read at 450 nm and 630 nm using a Hidex Sense plate reader. Metabolic inhibition was determined by the absorbance at 450 nm and transformed to % control using Excel. Data reported is an average of three replicates.

NAMPT [2] = target: T1, NAMPT; assay: Native mass spectrometry of NAMPT incubated with compound; type: binding; settings: NAMPT 5 μmol/l with compound 5 μmol/l, 12 hours; m/z 6125-6500 region
[3] = compound 100 μM, shift vs protein without ligand, mean of 3 independent repeats

| SMILES | ΔTm at 100 µM (NAMPT [1]; [3]) | inhibition at 1 µM (THP-1 cells) | complex between NAMPT and compound in native mass spectrum (NAMPT [2]) | ΔTm at 100 µM (NAMPT [1]) |
| --- | --- | --- | --- | --- |
| O=C(NCc1ccc(F)c(-c2ccc3cc(S(=O)(=O)O)cc(S(=O)(=O)O)c3c2)c1)Nc1ccc(S(=O)(=O)N2CCCCC2)cc1 [Example 1, 6-(2-fluoro-5-((3-(4-(piperidin-1-ylsulfonyl)phenyl)ureido)methyl)phenyl)-4-(trioxidaneylthio)naphthalene-2-sulfonic acid] | 10.3 °C | < 0% | – | – |
| O=C(/C=C/c1ccc(F)c(-c2ccc3cc(S(=O)(=O)O)cc(S(=O)(=O)O)c3c2)c1)NCCCCC1CCN(C(=O)c2ccccc2)CC1 [Example 2, (E)-6-(5-(3-((4-(1-benzoylpiperidin-4-yl)butyl)amino)-3-oxoprop-1-en-1-yl)-2-fluorophenyl)-4-(trioxidaneylthio)naphthalene-2-sulfonic acid] | 9.1 °C | 70.4% | – | – |
| O=C(NCc1ccc(F)c(-c2ccc3cc(S(=O)(=O)O)cc(S(=O)(=O)O)c3c2)c1)Nc1ccc(S(=O)(=O)c2ccccc2)cc1 [Example 3, 6-(2-fluoro-5-((3-(4-(phenylsulfonyl)phenyl)ureido)methyl)phenyl)-4-(trioxidaneylthio) naphthalene-2-sulfonic acid] | 12.2 °C | < 0% | – | – |
| O=S(=O)(O)c1cc(S(=O)(=O)O)c2cc(-c3cccc(-c4cn(CCCCCCOc5ccccc5-c5ccccc5)nn4)c3)ccc2c1 [Example 4] | – | < 0% | – | – |
| O=C(NCc1cccc(-c2ccc3cc(S(=O)(=O)O)cc(S(=O)(=O)O)c3c2)c1)Nc1ccc(S(=O)(=O)N2CCCCC2)cc1 [Example 5] | 10.8 °C | < 0% | – | – |
| O=C(NCc1cc(-c2ccc3cc(S(=O)(=O)O)cc(S(=O)(=O)O)c3c2)ccc1F)Nc1ccc(S(=O)(=O)N2CCCCC2)cc1 [Example 6, 6-(4-fluoro-3-((3-(4-(piperidin-1-ylsulfonyl)phenyl)ureido)methyl)phenyl)-4-(trioxidaneylthio) naphthalene-2-sulfonic acid] | 9.6 °C | 1% | – | – |
| COc1ccc(CNC(=O)Nc2ccc(S(=O)(=O)N3CCCCC3)cc2)cc1-c1ccc2cc(S(=O)(=O)O)cc(S(=O)(=O)O)c2c1 [Example 7] | 7.5 °C | < 0% | – | – |
| O=C(NCc1ccc(F)c(-c2ccc3cc(S(=O)(=O)O)cc(S(=O)(=O)O)c3c2)c1)Nc1ccc(S(=O)(=O)N2CC3CCC(C2)O3)cc1 [Example 8, 6-(5-((3-(4-((8-oxa-3-azabicyclo[3.2.1]octan-3-yl)sulfonyl)phenyl)ureido)methyl)-2-fluorophenyl)-4-(trioxidaneylthio)naphthalene-2-sulfonic acid] | 9.7 °C | < 0% | – | – |
| O=C(NCc1ccc(S(=O)(=O)N2CCCCC2)cc1)c1cc2cc(-c3ccc4cc(S(=O)(=O)O)cc(S(=O)(=O)O)c4c3)ccc2[nH]1 [Example 9] | 4.2 °C | < 0% | – | – |
| O=C(NC[C@@H]1CCOC1)c1ccc(NC(=O)N2Cc3ccc(-c4ccc5cc(S(=O)(=O)O)cc(SOOO)c5c4)cc3C2)cc1 [Example 10, (S)-6-(2-((4-(((Tetrahydrofuran-3-yl)methyl)carbamoyl)phenyl)carbamoyl)isoindolin-5-yl)-4-(trioxidaneylthio)naphthalene-2-sulfonic acid] | 20.5 °C | – | – | – |
| O=C(/C=C/c1cccnc1)NCCCCC1CCN(C(=O)c2ccccc2)CC1 [FK866, (E)-N-[4-(1-benzoylpiperidin-4-yl)butyl]-3-pyridin-3-ylprop-2-enamide, reference compound] | – | 79.6% | complex dissociates | 2.6 °C |
